Settings in the first data set: not given
The boiling point is the temperature at which the vapour pressure of the liquid equals the pressure above it. Usually melting point stands for the temperature of the solid-liquid transition. `CCc1ccc(N)cc1`: the boiling point came to 218 °C, the log10 vapour pressure (mmHg) is -0.844 and the melting point was -4.8 °C.

The compound `O=CCCCC=O` had a log10 vapour pressure (mmHg) of -0.222.

Compound `COc1cc2ccc(=O)oc2cc1OC` gave a melting point of 146 °C.

Take `FC(F)(F)I`: the boiling point is -22.5 °C.

Compound `CCC1c2ccccc2-c2ccccc21` had a log10 biodegradation half-life (days) of 1.46.

In turn, `c1ccc(N=C(Nc2ccccc2)Nc2ccccc2)cc1` yielded a melting point of 146 °C.

On to `Brc1ccccn1`, for which the boiling point was determined as 195 °C and the log10 vapour pressure (mmHg) is -0.114.

Consider `CCN(CC)N=O`, for which the boiling point is 177 °C, the log10 Henry constant (atm·m³/mol) was -5.44, the log10 vapour pressure (mmHg) was -0.0655 and the ready biodegradability entry is “not readily biodegradable”.

`O=C(C=CC(=O)Oc1ccccc1)Oc1ccccc1`: the melting point was determined as 73 °C.

Compound `COc1cc(C(Cl)(Cl)Cl)cc(Cl)n1` returned a log10 Koc (L/kg) of 3.48.

Turning to `Cc1cc(Cl)n(C)n1`, the boiling point was determined as 158 °C.

Regarding `O=C(O)c1ccc(Cl)cc1Cl`, the melting point amounted to 164 °C and the ready biodegradability entry is recorded as “not readily biodegradable”.

For `CCOC(=O)C(C(=O)OCC)C(C)C`, the boiling point was 215 °C.

For the compound `Clc1ccc(-c2cc(Cl)ccc2Cl)c(Cl)c1`, the log10 Henry constant (atm·m³/mol) was -3.68, the log10 Koa came to 8.39 and the log10 vapour pressure (mmHg) was -5.07.

Consider `O=C(O)c1cccnc1`, for which the melting point was found to be 237 °C and the ready biodegradability result is given as “readily biodegradable”.

In turn, `O=C(O)c1ccccc1Oc1ccccc1` showed a boiling point of 355 °C and a melting point of 113 °C.

With `c1ccc(-c2ccc(-c3ccccc3)cc2)cc1`, the boiling point came to 376 °C, the log10 vapour pressure (mmHg) is -7, the melting point turned out to be 210 °C and the ready biodegradability result is “not readily biodegradable”.

As to `Cc1ccc(O)c(-n2nc3ccccc3n2)c1`, the melting point was determined as 132 °C.

`Clc1[nH]nc2ccccc12` registered a melting point of 149 °C.

Consider `CC(C)COC=O`, for which the boiling point is 98.2 °C, the log10 vapour pressure (mmHg) was 1.6 and the melting point was -95.8 °C.

The compound `Cc1cccc2cc3ccccc3cc12` had a melting point of 85.5 °C.

Regarding `CN(C)C(=O)SCCCCOc1ccccc1`, the log10 vapour pressure (mmHg) is -5.9 and the melting point was determined as 40.5 °C.

`CCC(Br)Br` yielded a boiling point of 134 °C.

Regarding `CCOC(=O)CC(=O)c1ccc(OC)cc1`, the ready biodegradability result is given as “readily biodegradable”.

`C1CCCNCC1` gave a boiling point of 138 °C, a log10 Henry constant (atm·m³/mol) of -5.21 and a log10 vapour pressure (mmHg) of 0.908.

Regarding `O=C(CCC(=O)OCc1ccccc1)OCc1ccccc1`, the melting point turned out to be 49.5 °C.

In the case of `C=CC12CN(C)C3C4COC(CC41)[C@]1(C(=O)Nc4ccccc41)C32` (some centres not stated), the melting point came out at 178 °C.

For the compound `NC(=O)C1(N2C(=O)c3cccc(Cl)c3C2=O)CCCCC1`, the melting point was found to be 194 °C.

`O=C(O)COCC(=O)O` yielded a melting point of 148 °C.

Take `O=C(CO)[C@@H](O)[C@H](O)[C@@H](O)CO`: the melting point came out at 165 °C.

As for `O=C(OCC1(COC(=O)c2cccnc2)CCCC(COC(=O)c2cccnc2)(COC(=O)c2cccnc2)C1O)c1cccnc1`, the melting point worked out at 178 °C.

In the case of `O=[N+]([O-])C(Br)(Br)Br`, the melting point worked out at 10 °C.

On to `Cl/C=C/Cl`, for which the ready biodegradability result was “not readily biodegradable”.

Regarding `COc1ccc(C[C@H]2NC[C@H](O)[C@H]2OC(C)=O)cc1`, the melting point came out at 140 °C.

Consider `O=C(O)C(O)C(=O)O`, for which the melting point is 157 °C.

With `CN(C)C(=O)N(C(=O)c1ccccc1)c1ccc(Cl)c(Cl)c1`, the melting point stood at 119 °C.

Compound `CC(=O)N1CCC(=O)CC1` gave a boiling point of 218 °C.

Consider `CC1(N)CCCC1`, for which the boiling point came to 121 °C.

The compound `O=C(Nc1ccccc1)c1cc(Cl)ccc1O` displayed a melting point of 211 °C.

Regarding `CCCCCC[C@H](C)S`, the log10 vapour pressure (mmHg) was -0.147.

The compound `CC(=O)NC(=O)c1ccccc1O` showed a melting point of 148 °C.

`O=C(OC[C@H]1O[C@@H](O)[C@H](O)[C@@H](O)[C@@H]1O)c1ccccc1` had a melting point of 121 °C.

On to `CC(=O)O[C@H]1[C@H]2O[C@]23[C@@H]2CC[C@]4(O)C[C@@H](O)CC[C@]4(C)[C@H]2CC[C@]3(C)[C@H]1c1ccc(=O)oc1`, for which the melting point is 260 °C.

In turn, `CN=NC` yielded a boiling point of 1.5 °C and a melting point of -78 °C.

Regarding `OCc1ccc(Cl)cc1`, the boiling point was 235 °C and the melting point worked out at 75 °C.

Take `O=C(C(F)(F)Cl)C(F)(F)Cl`: the boiling point turned out to be 44.5 °C.

As to `C=CCOC1=NS(=O)(=O)c2ccccc21`, the melting point came out at 138 °C and the ready biodegradability result is on record as “not readily biodegradable”.

Take `CCCC(C)CC=O` (configuration not stated): the boiling point worked out at 143 °C.

`FC(F)(Cl)C(F)(F)C(F)(F)C(F)(F)C(F)(F)C(F)(F)C(F)(F)C(F)(F)Cl` had a boiling point of 151 °C.

`O=C(O)c1cc(O)c2ccccc2n1`: the melting point amounted to 282 °C.

For `c1ccc(COP(OCc2ccccc2)OCc2ccccc2)cc1`, the ready biodegradability entry is reported as “readily biodegradable”.

Turning to `CC(Cl)C(C)Cl` (configuration not stated), the boiling point worked out at 118 °C, the log10 vapour pressure (mmHg) came to 1.39 and the melting point was -80 °C.

`CCCCCCCCON=O`: the boiling point is 174 °C.

Take `CCCCCC(=O)CCC`: the boiling point was 188 °C.

On to `Cc1ccc(OC(=O)c2ccccc2)cc1`, for which the boiling point came out at 316 °C and the melting point was 71.5 °C.

The data set is the same for the next values; noted with them: fish.
Take `Oc1ccc(Cl)cc1`: the log10 BCF is 1.48 and the log10 biotransformation half-life (days) is -0.41.

The compound `Clc1cc(Cl)c(-c2c(Cl)cc(Cl)c(Cl)c2Cl)cc1Cl` came in with a log10 biotransformation half-life (days) of 2.59.

In turn, `FC(F)(F)c1cccc(Cl)c1` yielded a log10 BCF of 2.35 and a log10 biotransformation half-life (days) of 0.64.

Compound `O=[N+]([O-])c1ccccc1O` came in with a log10 BCF of 1.34.

In turn, `NC(=O)c1c(Cl)c(Cl)c(Cl)c(Cl)c1C(=O)O` registered a log10 BCF of 0.49.

The record behind these values is the OPERA property sets (Mansouri et al. 2018).
